Laboratory results: patent publication US9289417B2, “Compounds and methods for the modulation of sulfilimine bond formation” (VANDERBILT UNIVERSITY, priority 2009, dated 2016)
“Also recorded” adds a separate entry of the source.

Key:
[1] = system: type IV collagen NC1 domain sulfilimine crosslink formation; test: Type IV collagen NC1 domain sulfilimine crosslink (dimer) formation in matrix of cultured PF HR9 cells, western blot; format: cell-based, mouse; details: for inhibition of NC1 dimer (D) formation: PF HR9 mouse endodermal cell matrix, anti-α2 chain western blot; for effect on NC1 domain sulfilimine crosslink (dimer) formation, in words: increasing concentrations, PF HR9 cell culture matrix, western blot
Experimental: FIG. 9. Methimazole and Phloroglucinol inhibit type IV collagen NC1 domain sulfilimine crosslink formation. NC1 domains were prepared from collagenase digests of extracellular matrix derived from cultured PF HR9 mouse endodermal cells and detected by western blotting with an anti-α2 chain monoclonal antibody.
Standard drug discovery strategies may identify other agents that specifically target the sulfilimine cross-link system with minimal inhibition of other peroxidase systems. In addition, a monoclonal antibody can be generated to inhibit enzyme activity. These agents represent anti-angiogenic oncologic agents that can be translated to clinical medicine with broad application.

human peroxidasin (PXDN) = biological target: T1, human peroxidasin (PXDN) (Homo sapiens, UniProt Q92626); test: NC1 domain dimerization by HEK293 cells stably transfected with human peroxidasin plated on monomeric PFHR9 matrix; format: cell-based; details: concentration not given
T1 construct: expressed in transfected cells; host or cells: HEK293 (stably transfected)
T1 sequence (Q92626 27-1479): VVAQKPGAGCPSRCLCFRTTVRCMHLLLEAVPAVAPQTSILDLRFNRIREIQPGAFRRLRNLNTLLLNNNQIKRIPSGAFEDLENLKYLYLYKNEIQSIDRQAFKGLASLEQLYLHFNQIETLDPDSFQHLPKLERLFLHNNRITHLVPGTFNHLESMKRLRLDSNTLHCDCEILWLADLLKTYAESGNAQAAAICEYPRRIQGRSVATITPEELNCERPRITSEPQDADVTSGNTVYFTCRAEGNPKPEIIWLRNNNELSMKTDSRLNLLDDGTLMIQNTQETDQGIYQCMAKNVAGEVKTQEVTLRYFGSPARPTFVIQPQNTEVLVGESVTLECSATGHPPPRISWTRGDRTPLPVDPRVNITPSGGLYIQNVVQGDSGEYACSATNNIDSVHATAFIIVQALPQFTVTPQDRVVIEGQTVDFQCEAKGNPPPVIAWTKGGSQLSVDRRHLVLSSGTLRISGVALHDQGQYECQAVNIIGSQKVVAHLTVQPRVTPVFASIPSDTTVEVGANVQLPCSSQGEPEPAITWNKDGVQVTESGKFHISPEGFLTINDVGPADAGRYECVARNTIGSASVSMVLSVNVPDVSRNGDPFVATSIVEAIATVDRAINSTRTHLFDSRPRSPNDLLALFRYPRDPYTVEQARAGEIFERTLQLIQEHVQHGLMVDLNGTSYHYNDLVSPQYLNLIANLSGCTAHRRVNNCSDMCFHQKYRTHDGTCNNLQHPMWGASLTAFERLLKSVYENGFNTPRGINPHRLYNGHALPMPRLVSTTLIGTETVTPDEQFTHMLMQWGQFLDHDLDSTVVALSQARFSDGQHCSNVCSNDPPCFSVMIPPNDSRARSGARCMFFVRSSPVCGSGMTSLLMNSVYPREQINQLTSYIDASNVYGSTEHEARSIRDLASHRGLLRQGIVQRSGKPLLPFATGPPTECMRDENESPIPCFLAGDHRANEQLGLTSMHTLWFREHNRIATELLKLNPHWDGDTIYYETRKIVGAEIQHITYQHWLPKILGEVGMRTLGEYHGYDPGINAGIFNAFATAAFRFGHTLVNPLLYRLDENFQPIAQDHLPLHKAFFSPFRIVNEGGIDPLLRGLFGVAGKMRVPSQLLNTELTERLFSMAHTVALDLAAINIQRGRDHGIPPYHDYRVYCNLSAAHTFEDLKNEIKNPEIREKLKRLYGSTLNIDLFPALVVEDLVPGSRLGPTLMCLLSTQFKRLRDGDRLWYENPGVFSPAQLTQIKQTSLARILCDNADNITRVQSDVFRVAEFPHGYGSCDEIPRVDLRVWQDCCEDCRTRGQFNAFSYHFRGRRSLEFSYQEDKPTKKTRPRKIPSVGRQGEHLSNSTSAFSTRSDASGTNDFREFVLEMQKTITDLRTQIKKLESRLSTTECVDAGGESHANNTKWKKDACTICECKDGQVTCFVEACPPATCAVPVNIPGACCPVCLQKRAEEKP
From the text: FIG. 11. PXDN mediates NC1 domain dimerization. HEK293 stably transfected with human peroxidasin (PXDN) plated on top of monomeric PFHR9 matrix leads to NC1 domain dimerization (middle lanes). […] Placental basement membrane (PBM) NC1 domain is shown for comparison.
Based on these findings, they pursued peroxidasin, a known matrix peroxidase, as a possible candidate for collagen IV dimer and presumably sulfilimine bond formation. […] Peroxidasin was also identified as an endogenous component of the extracellular matrix produced by the HR-9 cells with the use of mass spectrometry.

Row | SMILES | inhibition of NC1 dimer (D) formation ([1]; Phloroglucinol at 5 uM) | inhibition of NC1 dimer (D) formation ([1]; Phloroglucinol at 50 uM) | effect on NC1 domain sulfilimine crosslink (dimer) formation, in words [1] | effect on NC1 domain sulfilimine crosslink (dimer) formation, in words ([1]; listed as phloroglucinol) | NC1 domain dimerization by PXDN transfected HEK293 cells in the presence of inhibitor (human peroxidasin (PXDN)) | effect on NC1 domain sulfilimine crosslink (dimer) formation, in words ([1]; listed as methimazole)
1 | Oc1cc(O)cc(O)c1 [Phloroglucinol, phloroglucinol] | near complete inhibition | complete inhibition | inhibits dimer (D) formation more potently | inhibit cross-link formation | No dimer formation was observed; also recorded: fail to lead to dimerization | 
2 | Cn1cc[nH]c1=S [Methimazole, methimazole] |  |  | decreases crosslinked NC1 dimer (D) while increasing non-crosslinked monomer (M) |  |  | inhibit cross-link formation
